Laboratory results taken from patent US11434242B2, “Dopamine-b-hydroxylase inhibitors” (BIAL-PORTELA & Cª, S.A., priority 2017, dated 2022).

What was measured:
DβH = target: T1, DβH (Homo sapiens, UniProt P09172); experiment: DβH inhibition assay in SK-N-SH cellular homogenates (tyramine to octopamine); assay type: biochemical; conditions: SK-N-SH cell homogenate; for SKNSH (0.1 μM), activity in % of control: inhibitor 0.1 μM; for SKNSH (1 μM), activity in % of control: inhibitor 1 μM
T1 construct: cellular homogenate (75 μg total protein); host or cells: SK-N-SH cells (homogenate)
T1 sequence (P09172 1-617): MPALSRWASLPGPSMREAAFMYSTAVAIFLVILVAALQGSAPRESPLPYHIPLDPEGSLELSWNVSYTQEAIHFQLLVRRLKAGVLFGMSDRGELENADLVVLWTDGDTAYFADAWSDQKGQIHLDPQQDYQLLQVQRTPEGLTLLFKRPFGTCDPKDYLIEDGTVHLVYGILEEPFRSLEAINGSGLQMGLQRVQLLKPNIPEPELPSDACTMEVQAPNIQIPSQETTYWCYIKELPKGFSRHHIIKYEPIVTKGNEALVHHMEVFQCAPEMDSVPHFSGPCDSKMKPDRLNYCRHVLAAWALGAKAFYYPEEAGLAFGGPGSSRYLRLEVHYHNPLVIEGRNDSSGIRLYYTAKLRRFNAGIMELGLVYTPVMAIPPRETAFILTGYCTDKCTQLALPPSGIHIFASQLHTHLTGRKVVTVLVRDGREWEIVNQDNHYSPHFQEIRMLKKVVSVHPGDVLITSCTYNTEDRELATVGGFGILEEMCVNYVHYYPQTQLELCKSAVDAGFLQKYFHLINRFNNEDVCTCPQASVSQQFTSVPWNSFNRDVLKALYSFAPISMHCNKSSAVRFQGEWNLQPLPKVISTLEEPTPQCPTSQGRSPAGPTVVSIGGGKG

[1] = target: T2, Dopamine beta hydroxylase (Homo sapiens, UniProt P09172); experiment: Dopamine beta hydroxylase activity in human plasma; assay type: biochemical; conditions: for Plasma (0.1 μM), activity in % of control: inhibitor 0.1 μM; for Plasma (1 μM), activity in % of control: inhibitor 1 μM
T2 construct: 125 μl of plasma; tissue Instituto Português do Sangue Transplantação; host or cells: human plasma from healthy donors
T2 sequence (P09172 40-617 limits assumed): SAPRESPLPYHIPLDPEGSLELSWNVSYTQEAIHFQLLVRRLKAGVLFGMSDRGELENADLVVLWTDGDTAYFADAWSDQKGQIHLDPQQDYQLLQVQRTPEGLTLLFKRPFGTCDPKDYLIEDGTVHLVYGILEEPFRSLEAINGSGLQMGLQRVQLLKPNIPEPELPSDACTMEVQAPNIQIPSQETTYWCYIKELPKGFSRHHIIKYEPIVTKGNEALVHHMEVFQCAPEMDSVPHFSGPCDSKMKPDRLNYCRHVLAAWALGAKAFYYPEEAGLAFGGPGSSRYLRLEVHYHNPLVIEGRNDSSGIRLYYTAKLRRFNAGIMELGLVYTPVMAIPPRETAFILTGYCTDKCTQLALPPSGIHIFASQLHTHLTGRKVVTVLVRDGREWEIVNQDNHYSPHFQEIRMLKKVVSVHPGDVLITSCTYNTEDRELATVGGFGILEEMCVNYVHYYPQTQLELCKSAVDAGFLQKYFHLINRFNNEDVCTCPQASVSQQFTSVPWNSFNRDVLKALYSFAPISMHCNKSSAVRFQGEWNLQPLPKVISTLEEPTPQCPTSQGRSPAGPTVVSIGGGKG
How it was run: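 Healthy-donor human plasma pre-incubated 10 min at 37° C with compound at final 10, 100 or 1000 nM in pH 5.0 acetate buffer with ascorbate, fumarate, pargyline, N-ethylmaleimide, catalase and copper sulfate. Tyramine substrate then added for 45 min; octopamine formed was isolated by SCX cartridge, periodate-converted and read at 330 nm; activity given as % control.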

## NC(=O)Cc1[nH]c(=S)n2c1[C@@H]1C[C@]1(c1c(F)ccc(Br)c1F)C2 [Example 57, 2-((5aS,6aR)-5a-(3-bromo-2,6-difluorophenyl)-3-thioxo-2,3,5,5a,6,6a-hexahydrocyclopropa[3,4]pyrrolo[1,2-c]imidazol-1-yl)acetamide]
DβH
  SKNSH (0.1 μM), activity in % of control: 11.6 % of control
  SKNSH (1 μM), activity in % of control: 0.2 % of control
[1]
  Plasma (0.1 μM), activity in % of control: 18.1 % of control
  Plasma (1 μM), activity in % of control: 0.1 % of control

## CCOC(=O)Cc1[nH]c(=S)n2c1[C@@H]1C[C@]1(c1cc(Cl)ccc1F)C2 [Example 54, Ethyl 2-((5aS,6aR)-5a-(5-chloro-2-fluorophenyl)-3-thioxo-2,3,5,5a,6,6a-hexahydrocyclopropa[3,4]pyrrolo[1,2-c]imidazol-1-yl)acetate]
DβH
  SKNSH (0.1 μM), activity in % of control: 33.8 % of control
  SKNSH (1 μM), activity in % of control: 4.2 % of control
[1]
  Plasma (0.1 μM), activity in % of control: 32.2 % of control
  Plasma (1 μM), activity in % of control: 3.4 % of control

## O=C(O)Cc1[nH]c(=S)n2c1[C@@H]1C[C@]1(c1cc(F)ccc1F)C2 [Example 6, 2-((5aS,6aR)-5a-(2,5-difluorophenyl)-3-thioxo-2,3,5,5a,6,6a-hexahydrocyclopropa[3,4]pyrrolo[1,2-c]imidazol-1-yl)acetic Acid]
DβH
  SKNSH (0.1 μM), activity in % of control: 36.9 % of control
  SKNSH (1 μM), activity in % of control: 3.7 % of control

## COC(=O)Cc1[nH]c(=S)n2c1[C@@H]1C[C@]1(c1cc(F)cc(F)c1)C2 [Example 5, Methyl 2-((5aS,6aR)-5a-(3,5-difluorophenyl)-3-thioxo-2,3,5,5a,6,6a-hexahydrocyclopropa[3,4]pyrrolo[1,2-c]imidazol-1-yl)acetate]
DβH
  SKNSH (1 μM), activity in % of control: 19.9 % of control

## NC(=O)Cc1[nH]c(=S)n2c1[C@@H]1C[C@]1(c1cc(F)cc(Cl)c1)C2 [Example 58, 2-((5aS,6aR)-5a-(3-chloro-5-fluorophenyl)-3-thioxo-2,3,5,5a,6,6a-hexahydrocyclopropa[3,4]pyrrolo[1,2-c]imidazol-1-yl)acetamide]
DβH
  SKNSH (0.1 μM), activity in % of control: 56.8 % of control
  SKNSH (1 μM), activity in % of control: 9.3 % of control
[1]
  Plasma (0.1 μM), activity in % of control: 59.2 % of control
  Plasma (1 μM), activity in % of control: 14.0 % of control

## O=C(O)Cc1[nH]c(=S)n2c1[C@@H]1C[C@]1(c1cc(F)cc(Cl)c1)C2 [Example 53, 2-((5aS,6aR)-5a-(3-chloro-5-fluorophenyl)-3-thioxo-2,3,5,5a,6,6a-hexahydrocyclopropa[3,4]pyrrolo[1,2-c]imidazol-1-yl)acetic Acid]
DβH
  SKNSH (0.1 μM), activity in % of control: 13.4 % of control
  SKNSH (1 μM), activity in % of control: 0 % of control
[1]
  Plasma (0.1 μM), activity in % of control: 26.2 % of control
  Plasma (1 μM), activity in % of control: 2.7 % of control

## OCc1[nH]c(=S)n2c1[C@@H]1C[C@]1(c1cc(F)cc(F)c1)C2 [Example 50, (5aS,6aR)-5a-(3,5-difluorophenyl)-1-(hydroxymethyl)-5,5a,6,6a-tetrahydrocyclopropa[3,4]pyrrolo[1,2-c]imidazole-3(2H)-thione]
DβH
  SKNSH (0.1 μM), activity in % of control: 57.5 % of control
  SKNSH (1 μM), activity in % of control: 1.8 % of control

## CCOC(=O)Cc1[nH]c(=S)n2c1C[C@@H](c1cc(F)cc(F)c1)C2 [Example 1, (S)-ethyl 2-(6-(3,5-difluorophenyl)-3-thioxo-3,5,6,7-tetrahydro-2H-pyrrolo[1,2-c]imidazol-1-yl)acetate]
DβH
  SKNSH (1 μM), activity in % of control: 37.9 % of control

## CN(CCc1[nH]c(=S)n2c1[C@@H]1C[C@]1(c1cc(F)ccc1F)C2)Cc1ccccc1 [Example 40, (5aS,6aR)-1-(2-(benzyl(methyl)amino)ethyl)-5a-(2,5-difluorophenyl)-5,5a,6,6a-tetrahydrocyclopropa[3,4]pyrrolo[1,2-c]imidazole-3(2H)-thione]
DβH
  SKNSH (1 μM), activity in % of control: 29.3 % of control

## CCOC(=O)Cc1[nH]c(=S)n2c1C1CC1(c1cccs1)C2 (stereo not drawn) [Example 44, Ethyl 2-(5a-(thiophen-2-yl)-3-thioxo-2,3,5,5a,6,6a-hexahydrocyclopropa[3,4]pyrrolo[1,2-c]imidazol-1-yl)acetate]
DβH
  SKNSH (1 μM), activity in % of control: 45.9 % of control

## COC(=O)Cc1[nH]c(=S)n2c1[C@@H]1C[C@]1(c1cc(F)ccc1F)C2 [Example 4, Methyl 2-((5aS,6aR)-5a-(2,5-difluorophenyl)-3-thioxo-2,3,5,5a,6,6a-hexahydrocyclopropa[3,4]pyrrolo[1,2-c]imidazol-1-yl)acetate]
DβH
  SKNSH (1 μM), activity in % of control: 20.3 % of control

## NC(=O)Cc1[nH]c(=S)n2c1[C@@H]1C[C@]1(c1cc(F)cc(F)c1)C2 [Example 33, 2-((5aS,6aR)-5a-(3,5-difluorophenyl)-3-thioxo-2,3,5,5a,6,6a-hexahydrocyclopropa[3,4]pyrrolo[1,2-c]imidazol-1-yl)acetamide]
DβH
  SKNSH (1 μM), activity in % of control: 33.4 % of control

## O=C(O)Cc1[nH]c(=S)n2c1[C@@H]1C[C@]1(c1cc(F)cc(F)c1)C2 [Example 7, 2-((5aS,6aR)-5a-(3,5-difluorophenyl)-3-thioxo-2,3,5,5a,6,6a-hexahydrocyclopropa[3,4]pyrrolo[1,2-c]imidazol-1-yl)acetic Acid]
DβH
  SKNSH (0.1 μM), activity in % of control: 45.6 % of control
  SKNSH (1 μM), activity in % of control: 3.6 % of control

## O=C(O)c1[nH]c(=S)n2c1C[C@@H](c1cc(F)cc(F)c1)C2 [Example 43, (S)-6-(3,5-difluorophenyl)-3-thioxo-3,5,6,7-tetrahydro-2H-pyrrolo[1,2-c]imidazole-1-carboxylic Acid]
DβH
  SKNSH (1 μM), activity in % of control: 45.6 % of control

## O=C(O)Cc1[nH]c(=S)n2c1C[C@@H](c1cc(F)ccc1F)C2 [Example 3, (S)-2-(6-(2,5-difluorophenyl)-3-thioxo-3,5,6,7-tetrahydro-2H-pyrrolo[1,2-c]imidazol-1-yl)acetic Acid]
DβH
  SKNSH (1 μM), activity in % of control: 35.8 % of control

## N#CCc1[nH]c(=S)n2c1[C@@H]1C[C@]1(c1cc(F)ccc1F)C2 [Example 36, 2-((5aS,6aR)-5a-(2,5-difluorophenyl)-3-thioxo-2,3,5,5a,6,6a-hexahydrocyclopropa[3,4]pyrrolo[1,2-c]imidazol-1-yl)acetonitrile]
DβH
  SKNSH (1 μM), activity in % of control: 50.1 % of control

## CN(Cc1ccccc1)C(=O)Cc1[nH]c(=S)n2c1[C@@H]1C[C@]1(c1cc(F)ccc1F)C2 [Example 37, N-benzyl-2-((5aS,6aR)-5a-(2,5-difluorophenyl)-3-thioxo-2,3,5,5a,6,6a-hexahydrocyclopropa[3,4]pyrrolo[1,2-c]imidazol-1-yl)-N-methylacetamide]
DβH
  SKNSH (1 μM), activity in % of control: 15.7 % of control

## CCCCN(C)C(=O)Cc1[nH]c(=S)n2c1[C@@H]1C[C@]1(c1cc(F)ccc1F)C2 [Example 38, N-butyl-2-((5aS,6aR)-5a-(2,5-difluorophenyl)-3-thioxo-2,3,5,5a,6,6a-hexahydrocyclopropa[3,4]pyrrolo[1,2-c]imidazol-1-yl)-N-methylacetamide]
DβH
  SKNSH (1 μM), activity in % of control: 20.9 % of control

## CS(=O)(=O)Cc1[nH]c(=S)n2c1C[C@@H](c1c(F)c(F)cc(F)c1F)C2 [Example 47, (S)-1-(methylsulfonylmethyl)-6-(2,3,5,6-tetrafluorophenyl)-6,7-dihydro-2H-pyrrolo[1,2-c]imidazole-3(5H)-thione]
DβH
  SKNSH (1 μM), activity in % of control: 62.9 % of control

## O=C(O)Cc1[nH]c(=S)n2c1C[C@@H](c1c(F)c(F)cc(F)c1F)C2 [Example 10, (S)-2-(6-(2,3,5,6-tetrafluorophenyl)-3-thioxo-3,5,6,7-tetrahydro-2H-pyrrolo[1,2-c]imidazol-1-yl)acetic Acid]
DβH
  SKNSH (0.1 μM), activity in % of control: 46.4 % of control
  SKNSH (1 μM), activity in % of control: 2.1 % of control
